Experiments:
[1] = CC50 assay (CellTiter-Glo) in Huh-7 HCV replicon cells; format: cell-based; details: human
In short: (§1)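 Huh-7 cells carrying HCV replicon (6000/well) incubated with serially diluted compound, 0.5% DMSO final, 3 days at 37° C, 5% CO2. EC50 from luciferase luminescence after 30 min lysis/substrate at room temperature; CC50 from CellTiter-Glo luminescence after 10 min at room temperature.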

[2] = system: HCV replicon in human hepatoma Huh-7 cell line; assay: Anti-HCV replicon assay, EC50 (luciferase luminescence); format: cell-based; details: Hepatitis C virus, Huh-7, 72 h
In short: as §1

Structure (SMILES)	CC50 at 3 days ([1]; Table 2, 3 days incubation) [µM]	EC50 [2] [nM]	CC50 at 3 days ([1]; Table 1, 3 days incubation) [µM]
Cc1ccc(-c2ccc3nc(NCc4ccc(-n5cncn5)cc4)nc(NC4(C(F)(F)F)CC4)c3n2)cc1S(N)(=O)=O [Example 42, 5-(2-(4-(1H-1,2,4-triazol-1-yl)benzylamino)-4-(1-(trifluoromethyl)cyclopropyl-amino)pyrido[3,2-d]pyrimidin-6-yl)-2-methylbenzene-sulfonamide]	1 to 10	< 100	–
FC(F)(F)CNc1nc(NCc2ccc(-n3cncn3)cc2)nc2ccc(C#CC3CC3)nc12 [Example 287, N^2-(4-(1H-1,2,4-triazol-1-yl)benzyl)-6-(2-cyclopropyl-ethynyl)-N^4-(2,2,2-trifluoroethyl) pyrido[3,2-d]pyrimidine-2,4-diamine]	> 10	100 to 250	–
COc1ccc(-c2ccc3nc(NC(C)c4ccc(-n5cncn5)cc4)nc(NC4(C(F)(F)F)CC4)c3n2)cc1S(C)(=O)=O (stereo not shown) [Example 97, N^2-(1-(4-(1H-1,2,4-triazol-1-yl)phenyl)ethyl)-6-(4-methoxy-3-(methylsulfonyl)phenyl)-N^4-(1-(trifluoromethyl)cyclopropyl)pyrido[3,2-d] pyrimidine-2,4-diamine]	> 10	< 100	–
CS(=O)(=O)c1cccc(-c2ccc3nc(NCc4ccc(-n5cncn5)cc4)nc(OC4CC4)c3n2)c1 [Example 188, N-(4-(1H-1,2,4-triazol-1-yl)benzyl)-4-cyclopropoxy-6-(3-(methylsulfonyl)phenyl) pyrido[3,2-d]pyrimidin-2-amine]	> 10	< 100	–
COc1ccc(-c2ccc3nc(NCc4ccc(-n5cncn5)cc4)nc(NCC(F)(F)F)c3n2)cc1S(N)(=O)=O [Example 237, 5-(2-(4-(1H-1,2,4-triazol-1-yl)benzylamino)-4-(2,2,2-trifluoroethylamino)pyrido [3,2-d]pyrimidin-6-yl)-2-methoxybenzenesulfonamide]	> 10	< 100	–
NS(=O)(=O)c1ccc(CNc2nc(NC3(C(F)(F)F)CC3)c3nc(-c4ccc(F)cc4)ccc3n2)cc1 [Example 23, 4-{[6-(4-fluoro-phenyl)-4-(1-trifluoromethyl-cyclopropylamino)-pyrido[3,2-d]pyrimidin-2-ylamino]-methyl}-benzenesulfonamide]	1 to 10	< 100	–
CS(=O)(=O)c1cccc(-c2ccc3nc(NCc4cccc(-n5cncn5)c4)nc(NCC(F)(F)F)c3n2)c1 [Example 16, 6-(3-Methanesulfonyl-phenyl)-N2-(3-[1,2,4]-triazol-1-yl-benzyl)-N4-(2,2,2-trifluoro-ethyl)-pyrido[3,2-d]pyrimidine-2,4-diamine]	–	< 100	> 25
CCOc1ccc(-c2ccc3nc(NCc4ccc(-n5cncn5)cc4)nc(NC4(C(F)(F)F)CC4)c3n2)cn1 [Example 52, N^2-(4-(1H-1,2,4-triazol-1-yl)benzyl)-6-(6-ethoxypyridin-3-yl)-N^4-(1-(trifluoromethyl)cyclopropyl)pyrido[3,2-d] pyrimidine-2,4-diamine]	1 to 10	< 100	–
CS(=O)(=O)Nc1cncc(CNc2nc(NC3(C(F)(F)F)CC3)c3nc(-c4ccc(F)cc4)ccc3n2)c1 [Example 134, N-(5-((6-(4-fluorophenyl)-4-(1-(trifluoromethyl)cyclopropyl-amino)pyrido[3,2-d]pyrimidin-2-ylamino)methyl)pyridin-3-yl)methanesulfonamide]	> 10	250 to 2000	–
CS(=O)(=O)c1cccc(-c2ccc3nc(NCCO)nc(NCC(F)(F)F)c3n2)c1 [Example 162, 2-(6-(3-(methylsulfonyl)phenyl)-4-(2,2,2-trifluoroethyl-amino)pyrido[3,2-d]pyrimidin-2-ylamino)ethanol]	> 10	250 to 2000	–
CCOc1ccc(-c2ccc3nc(N[C@H](C)Cn4cncn4)nc(NCC(F)(F)F)c3n2)cn1 [Example 232, N^2-((R)-1-(1H-1,2,4-triazol-1-yl)propan-2-yl)-6-(6-ethoxypyridin-3-yl)-N^4-(2,2,2-trifluoroethyl)pyrido[3,2-d] pyrimidine-2,4-diamine]	1 to 10	< 100	–
N#Cc1cc(F)ccc1-c1ccc2nc(NCc3cc(C(F)(F)F)cc(S(N)(=O)=O)c3)nc(NC3(C(F)(F)F)CC3)c2n1 [Example 99, 3-((6-(2-cyano-4-fluorophenyl)-4-(1-(trifluoromethyl)cyclopropyl-amino)pyrido[3,2-d]pyrimidin-2-ylamino)methyl)-5-(trifluoro-methyl)benzenesulfonamide]	1 to 10	< 100	–
NS(=O)(=O)c1cccc(CNc2nc(NC3(C(F)(F)F)CCCCC3)c3nc(-c4ccc(F)cc4)ccc3n2)c1 [Example 66, 3-((6-(4-fluorophenyl)-4-(1-(trifluoromethyl)cyclohexylamino)pyrido[3,2-d]pyrimidin-2-ylamino)methyl)benzene-sulfonamide]	> 10	100 to 250	–
CC[C@@H](Nc1nc(NCC(F)(F)F)c2nc(-c3ccc(F)cc3)ccc2n1)c1ccccc1S(N)(=O)=O [Example 11, (R)-2-{1-[6-(4-Fluoro-phenyl)-4-(2,2,2-trifluoro-ethylamino)-pyrido[3,2-d]pyrimidin-2-ylamino]-propyl}-benzenesulfonamide]	–	250 to 2000	> 25
CCOc1ccc(-c2ccc3nc(N[C@H](C)c4ccc(-n5cncn5)cc4)nc(NCC(F)(F)F)c3n2)cc1S(N)(=O)=O [Example 265, 5-(2-((R)-1-(4-(1H-1,2,4-triazol-1-yl)phenyl)ethylamino)-4-(2,2,2-trifluoroethylamino)pyrido [3,2-d]pyrimidin-6-yl)-2-ethoxybenzenesulfonamide]	1 to 10	< 100	–
C[C@@H](Nc1nc(NCC(F)(F)F)c2nc(-c3ccc(Cl)c(S(C)(=O)=O)c3)ccc2n1)c1ccc(S(N)(=O)=O)cc1 [Example 155, 4-((R)-1-(6-(4-chloro-3-(methylsulfonyl)phenyl)-4-(2,2,2-trifluoroethylamino)pyrido[3,2-d]pyrimidin-2-ylamino)ethyl)benzene-sulfonamide]	1 to 10	< 100	–
C[C@@H](Nc1nc(NC2(C(F)(F)F)CC2)c2nc(-c3ccc(F)cc3)ccc2n1)c1ccc(S(N)(=O)=O)cc1 [Example 24, (R)-4-{1-[6-(4-fluorophenyl)-4-(1-trifluoromethyl-cyclopropylamino)-pyrido[3,2-d]pyrimidin-2-ylamino]-ethyl}-benzenesulfonamide]	> 10	< 100	–
c1ncn(-c2ccc(CNc3nc(OC4CC4)c4nc(-c5ccc(OC6CCC6)nc5)ccc4n3)cc2)n1 [Example 251, N-(4-(1H-1,2,4-triazol-1-yl)benzyl)-6-(6-cyclobutoxy-pyridin-3-yl)-4-cyclopropoxy-pyrido[3,2-d]pyrimidin-2-amine]	1 to 10	100 to 250	–
C[C@@H](Nc1nc(OC2CCC2)c2nc(C#CC3CC3)ccc2n1)c1ccc(S(N)(=O)=O)cc1 [Example 305, (R)-4-(1-(4-cyclobutoxy-6-(2-cyclopropylethynyl)pyrido [3,2-d]pyrimidin-2-ylamino)ethyl)benzenesulfonamide]	> 10	< 100	–
COCc1ccc(-c2ccc3nc(NCc4ccc(S(N)(=O)=O)cc4)nc(NC4(C(F)(F)F)CC4)c3n2)cc1S(C)(=O)=O [Example 30, 4-{[6-(3-methanesulfonyl-4-methoxymethylphenyl)-4-(1-trifluoromethyl-cyclopropylamino)-pyrido[3,2-d]pyrimidin-2-ylamino]-methyl}-benzenesulfonamide]	> 10	< 100	–
CS(=O)(=O)c1cccc(-c2ccc3nc(NCc4ccc(-n5cncn5)nc4)nc(NCC(F)(F)F)c3n2)c1 [Example 184, N^2-((6-(1H-1,2,4-triazol-1-yl)pyridin-3-yl)methyl)-6-(3-(methylsulfonyl)phenyl)-N^4-(2,2,2-trifluoroethyl)pyrido [3,2-d]pyrimidine-2,4-diamine]	1 to 10	< 100	–
CC#Cc1ccc2nc(N[C@H](C)c3ccc(S(N)(=O)=O)cc3)nc(OC3CC3)c2n1 [Example 309, (R)-4-(1-(4-cyclopropoxy-6-(prop-1-ynyl)pyrido[3,2-d]pyrimidin-2-ylamino)ethyl) benzenesulfonamide]	> 10	< 100	–
CS(=O)(=O)c1cccc(-c2ccc3nc(NC4CC4)nc(NCC(F)(F)F)c3n2)c1 [Example 138, N^2-cyclopropyl-6-(3-(methylsulfonyl)phenyl)-N^4-(2,2,2-trifluoroethyl)pyrido [3,2-d]pyrimidine-2,4-diamine]	> 10	100 to 250	–
N#Cc1cc(F)ccc1-c1ccc2nc(NCc3cccc(S(N)(=O)=O)c3)nc(NC3(C(F)(F)F)CC3)c2n1 [Example 98, 3-((6-(2-cyano-4-fluorophenyl)-4-(1-(trifluoromethyl)cyclopropyl-amino)pyrido[3,2-d]pyrimidin-2-ylamino)methyl)benzene-sulfonamide]	1 to 10	< 100	–
CC(C)Oc1nc(NCc2ccc(-n3cncn3)cc2)nc2ccc(-c3ccc(OC(F)F)c(S(C)(=O)=O)c3)nc12 [Example 199, N-(4-(1H-1,2,4-triazol-1-yl)benzyl)-6-(4-(difluoromethoxy)-3-(methylsulfonyl)phenyl)-4-isopropoxypyrido[3,2-d] pyrimidin-2-amine]	> 10	< 100	–
CS(=O)(=O)c1cccc(-c2ccc3nc(NCc4ccc(-n5cncn5)cc4)nc(O[C@@H]4C[C@@H]5C[C@@H]5C4)c3n2)c1 [Example 194, N-(4-(1H-1,2,4-triazol-1-yl)benzyl)-4-((1S,3r,5R)-bicyclo[3.1.0]hexan-3-yloxy)-6-(3-(methylsulfonyl)phenyl) pyrido[3,2-d]pyrimidin-2-amine]	1 to 10	< 100	–
